From patent US20230190687A1, “SODIUM BUTYRATE FOR USE IN THE PREVENTION OR TREATMENT OF RHINOVIRUS INFECTION” (priority 2020, published 2023)

Tests used:
HRV1B Rhinovirus = assay: Conditioned media of treated THP-1 macrophages incubated with HRV1B Rhinovirus; measurable live virus titrated; assay type: cell-based; details: then incubated with HRV1B, compared with control (distilled water), n=3
Description: With reference to FIG. 1, an experiment was carried out to treat leukocytes (the human monocytic THP-1 macrophage cell line differentiated into macrophages) with sodium butyrate, Vitamin D, or with a combination of sodium butyrate and Vitamin D.
The leukocyte cells were incubated for a period of time to allow them to release proteins into the surrounding cell culture media (referred to as ‘conditioned media’). The conditioned media was then incubated with HRV1B Rhinovirus. The leukocyte cells were incubated with a solution comprising 0.5 mM sodium butyrate, a solution comprising 0.5 mM Vitamin D, and with a solution comprising both 0.5 mM sodium butyrate and 0.5 mM Vitamin D.
The data shown is an average of n=3 independent biological replicates (the titration is an average of ten fold reductions quantified over the three replicates).

influenza infection = details: exogenous LL-37, mouse models of influenza infection; Barlow et al 2011; cited from earlier work
Rhinovirus = details: exogenous LL-37, cell models; Casanova et al 2020; cited from earlier work

## CCCC(=O)[O-].[Na+] [sodium butyrate]
HRV1B Rhinovirus; conditioned media of THP-1 macrophages incubated with 0.5 mM sodium butyrate
  reduction in measurable live virus: 75-80%

## LL-37: a human member of the cathelicidin family (LLGDFFRKSKEKIGKEFKRIVQRIKDFLRNLVPRTES; Antibacterial peptide LL-37; UniProt P49913 134-170, looked up)
Influenza infection
  inflammation: decrease inflammation
  survival rates: enhanced survival rates
Rhinovirus
  Rhinovirus induced inflammatory cytokine release: reduce Rhinovirus induced inflammatory cytokine release

## Vitamin D
HRV1B Rhinovirus; conditioned media of THP-1 macrophages incubated with 0.5 mM Vitamin D, or 0.5 mM sodium butyrate and 0.5 mM Vitamin D
  reduction in measureable live virus (in words): significant reduction
